Paper PMC4688937, “Heterologous expression of the isopimaric acid pathway in Nicotiana benthamiana and the effect of N-terminal modifications of the involved cytochrome P450 enzyme” (Journal of Biological Engineering, 2015)

Assays:
[1] = target: T1, CYP720B4 (Picea sitchensis, UniProt E5FA70); test: co-expression with diTPS-ISO in N. benthamiana leaves, GC-MS and LC-MS; settings: in planta, endogenous redox partner
T1 construct: ER; 55 kDa

[2] = target: T2, diTPS-ISO (Picea abies, UniProt Q675L5); test: transient expression in N. benthamiana leaves, product by GC-MS; settings: endogenous GGPP in leaves, in planta; cyclisation to isopimaradiene
T2 construct: gene TPS-ISO; C-terminal FLAG tag, pEAQ-HT, transiently expressed in Nicotiana benthamiana leaves; own plastid targeting; 92 kDa
T2 sequence (Q675L5 69-867): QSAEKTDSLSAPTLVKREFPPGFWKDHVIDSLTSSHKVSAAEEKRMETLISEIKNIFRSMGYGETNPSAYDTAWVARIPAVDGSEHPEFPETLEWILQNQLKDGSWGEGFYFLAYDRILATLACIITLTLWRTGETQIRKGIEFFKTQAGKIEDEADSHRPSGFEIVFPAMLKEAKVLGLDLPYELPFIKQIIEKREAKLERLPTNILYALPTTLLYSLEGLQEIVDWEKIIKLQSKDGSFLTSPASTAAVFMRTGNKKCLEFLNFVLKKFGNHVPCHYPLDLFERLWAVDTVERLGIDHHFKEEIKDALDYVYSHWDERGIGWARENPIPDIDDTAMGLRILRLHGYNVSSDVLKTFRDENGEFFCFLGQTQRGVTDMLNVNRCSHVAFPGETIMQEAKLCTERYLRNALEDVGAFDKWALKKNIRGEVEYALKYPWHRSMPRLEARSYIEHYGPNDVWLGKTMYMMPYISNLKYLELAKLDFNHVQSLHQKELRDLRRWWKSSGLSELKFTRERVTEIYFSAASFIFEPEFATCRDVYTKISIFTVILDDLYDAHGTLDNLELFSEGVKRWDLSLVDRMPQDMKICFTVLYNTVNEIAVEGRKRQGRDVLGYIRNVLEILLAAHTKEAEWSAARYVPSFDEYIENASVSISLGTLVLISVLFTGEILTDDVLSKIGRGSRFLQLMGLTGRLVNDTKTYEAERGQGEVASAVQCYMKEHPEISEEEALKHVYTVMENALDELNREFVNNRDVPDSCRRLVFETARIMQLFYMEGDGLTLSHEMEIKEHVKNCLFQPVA

[3] = target: T3, ΔTm-CYP720B4 (Picea sitchensis, UniProt E5FA70); test: co-expression with diTPS-ISO, DXS and GGPPs in N. benthamiana leaves, GC-FID and LC-MS; settings: in planta, endogenous redox partner
T3 construct: N-terminal membrane domain (first 37 amino acids) removed, new start Met from primer, FLAG tag, expressed in Nicotiana benthamiana leaves; 51 kDa
T3 sequence (E5FA70 entry or part of it, stated change not applied): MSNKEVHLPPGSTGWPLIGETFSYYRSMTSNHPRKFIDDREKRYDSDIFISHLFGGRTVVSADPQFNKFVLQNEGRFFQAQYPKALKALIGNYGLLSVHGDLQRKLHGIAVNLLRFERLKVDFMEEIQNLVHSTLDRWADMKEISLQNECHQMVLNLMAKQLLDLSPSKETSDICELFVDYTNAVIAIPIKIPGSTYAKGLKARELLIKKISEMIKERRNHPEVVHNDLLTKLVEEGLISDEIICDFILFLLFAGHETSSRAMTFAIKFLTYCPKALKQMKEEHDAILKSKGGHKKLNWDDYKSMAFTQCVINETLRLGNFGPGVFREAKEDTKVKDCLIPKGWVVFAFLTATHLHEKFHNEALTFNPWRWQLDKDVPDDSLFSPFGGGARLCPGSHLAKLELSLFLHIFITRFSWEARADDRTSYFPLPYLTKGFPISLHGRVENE

[4] = target: T4, Tp-Barnes-CYP720B4 (Picea sitchensis, UniProt E5FA70, DEL3-9/V13A, form not given); test: as above; settings: in planta, chloroplast-targeted enzyme
T4 construct: Barnes-modified N-terminus preceded by transit peptide (N-terminal 52 residues of Arabidopsis thaliana ferredoxin FedA, GenBank AY128936), partly processed; FLAG tag; chloroplast-targeted in Nicotiana benthamiana leaves; 60 kDa precursor
T4 sequence (E5FA70 entry or part of it DEL3-9/V13A, form open): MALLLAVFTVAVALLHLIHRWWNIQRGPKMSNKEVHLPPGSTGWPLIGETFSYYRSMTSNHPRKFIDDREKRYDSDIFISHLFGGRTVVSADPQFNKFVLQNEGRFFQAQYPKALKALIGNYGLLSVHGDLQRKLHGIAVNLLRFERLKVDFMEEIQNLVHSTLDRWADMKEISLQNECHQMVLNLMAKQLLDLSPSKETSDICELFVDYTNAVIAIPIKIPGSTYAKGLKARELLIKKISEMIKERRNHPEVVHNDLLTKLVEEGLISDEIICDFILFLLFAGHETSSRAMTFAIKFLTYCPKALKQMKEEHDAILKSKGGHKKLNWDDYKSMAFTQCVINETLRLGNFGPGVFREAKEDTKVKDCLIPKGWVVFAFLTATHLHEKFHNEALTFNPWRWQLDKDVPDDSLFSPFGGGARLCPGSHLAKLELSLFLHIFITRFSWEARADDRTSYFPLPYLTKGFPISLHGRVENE

[5] = target: T5, Barnes-CYP720B4 (Picea sitchensis, UniProt E5FA70, DEL3-9/V13A, form not given); test: as above; settings: in planta, endogenous redox partner
T5 construct: Barnes-modified N-terminus (text: residues 3-9 deleted, V13A); 54 kDa
T5 sequence (E5FA70 entry or part of it DEL3-9/V13A, form open): as above

T1 sequence (E5FA70 entry or part of it): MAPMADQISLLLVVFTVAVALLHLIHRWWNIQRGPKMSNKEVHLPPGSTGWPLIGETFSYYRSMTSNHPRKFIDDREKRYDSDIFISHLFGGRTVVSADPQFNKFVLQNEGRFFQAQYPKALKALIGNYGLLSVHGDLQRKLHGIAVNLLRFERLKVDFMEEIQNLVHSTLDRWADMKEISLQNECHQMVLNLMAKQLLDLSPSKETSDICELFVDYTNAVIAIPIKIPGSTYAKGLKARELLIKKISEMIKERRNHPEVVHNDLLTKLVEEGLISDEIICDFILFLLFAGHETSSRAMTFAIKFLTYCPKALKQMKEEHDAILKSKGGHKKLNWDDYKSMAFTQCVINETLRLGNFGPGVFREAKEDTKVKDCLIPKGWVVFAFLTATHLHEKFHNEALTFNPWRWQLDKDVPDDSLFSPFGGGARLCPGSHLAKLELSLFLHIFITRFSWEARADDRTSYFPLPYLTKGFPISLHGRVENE

## C=C[C@@]1(C)CC[C@H]2C(=CC[C@@H]3[C@]2(C)CCC[C@@]3(C)C(=O)O)C1 [isopimaric acid]
[1]
  co-expression with diTPS-ISO in N. benthamiana leaves, GC-MS and LC-MS: isopimaradiene was depleted and isopimaric acid accumulated (Fig. 2c, d), indicating efficient conversion

## CC(C)=CCC/C(C)=C/CC/C(C)=C/CC/C(C)=C/COP(=O)(O)OP(=O)(O)O [GGPP]
[2]
  transient expression in N. benthamiana leaves, product by GC-MS: The expressed diTPS-ISO is active as confirmed by the formation of isopimaradiene

## C=C[C@@]1(C)CC[C@H]2C(=CC[C@H]3C(C)(C)CCC[C@]23C)C1 [isopimaradiene]
[1]
  co-expression with diTPS-ISO in N. benthamiana leaves, GC-MS and LC-MS: Upon co-expression with CYP720B4, isopimaradiene was depleted and isopimaric acid accumulated
[2]
  transient expression in N. benthamiana leaves, product by GC-MS: active as confirmed by the formation of isopimaradiene in the infiltrated leaves
[3]
  co-expression with diTPS-ISO, DXS and GGPPs in N. benthamiana leaves, GC-FID and: CYP720B4 remains active even after complete removal of the transmembrane domain
[4]
  co-expression with diTPS-ISO, DXS and GGPPs in N. benthamiana leaves, GC-FID and: In contrast, the Tp-Barnes-CYP720B4 was active
[5]
  co-expression with diTPS-ISO, DXS and GGPPs in N. benthamiana leaves, GC-FID and: Barnes-CYP720B4 activity does not seem to deteriorate after the N-terminal modification
